For series [1], the target named is T1, ABCG2 (Homo sapiens, UniProt Q9UNQ0).
T1 sequence (Q9UNQ0 1-655): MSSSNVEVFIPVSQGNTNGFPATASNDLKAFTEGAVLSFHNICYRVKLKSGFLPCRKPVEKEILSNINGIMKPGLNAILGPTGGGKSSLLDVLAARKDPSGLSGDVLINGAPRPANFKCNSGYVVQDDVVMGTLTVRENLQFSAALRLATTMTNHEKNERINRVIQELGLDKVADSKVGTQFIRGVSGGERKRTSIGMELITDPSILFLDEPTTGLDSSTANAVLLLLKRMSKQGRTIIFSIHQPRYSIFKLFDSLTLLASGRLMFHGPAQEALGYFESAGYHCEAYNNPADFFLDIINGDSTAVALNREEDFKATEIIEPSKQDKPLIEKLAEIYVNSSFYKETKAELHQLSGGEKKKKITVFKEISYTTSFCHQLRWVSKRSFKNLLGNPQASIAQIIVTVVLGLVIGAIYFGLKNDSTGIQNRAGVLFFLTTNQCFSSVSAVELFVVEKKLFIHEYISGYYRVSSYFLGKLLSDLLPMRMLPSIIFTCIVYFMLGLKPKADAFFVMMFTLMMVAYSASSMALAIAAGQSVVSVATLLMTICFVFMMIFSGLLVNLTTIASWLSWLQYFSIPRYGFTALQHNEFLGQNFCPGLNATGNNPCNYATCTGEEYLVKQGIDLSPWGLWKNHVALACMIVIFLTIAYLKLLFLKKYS
The note with it: literature (refs 8, 10); cited from earlier work.

In series [2] the test system is HEK-293 pcDNA cells. The experiment in a line: Photosensitizer accumulation with ABCG2 modulators. The format is cell-based. The note with it: 10 μM modulator, 0.8 μM HPPH, four hours. How it is done: (§1) Cells were plated in 6-well plates at a density of 3×10^5 cells per well and incubated overnight. […] Cells were cultured for an additional 4 hours, then washed with cold culture medium and with PBS. Photosensitizer levels were determined using Solvable® (Perkin Elmer, Boston, MA) extraction (17). Briefly, the cells were solubilized in 0.5 ml Solvable® at 37° C. overnight. The Solvable® extract then was diluted 1:1 with PBS, the photosensitizer levels were determined by fluorometry, and concentrations were extrapolated from standard curves. Intracellular photosensitizer levels were normalized to intracellular protein content. To study photosensitizer efflux, cells were incubated with photosensitizer for 4 hours, then washed once with cold medium, resuspended in drug-free medium, placed at 37° C. or 4° C. for 1 hour and washed once with cold PBS. Photosensitizer levels were then determined using Solvable® extraction, as above.

Series [3] concerns HEK-293 R482 cells. The experiment in a line: Photosensitizer accumulation with ABCG2 modulators. The format is cell-based. The note with it: 10 μM modulator, 0.8 μM HPPH, four hours, p<0.05. The procedure:
as §1

In series [4] the test system is HEK-293 pcDNA cells. Put plainly: In vitro PDT phototoxicity (MTT assay) with ABCG2 modulators. The format is cell-based. The settings on record: 0.8 μM HPPH. On the technique in general: Tetrazolium assays rely on reduction of a dye to a coloured formazan, in cell work by metabolically active cells.
Series [5] relates to RIF-1 tumors. The procedure: (§2) To determine photosensitizer levels, samples of tumor, skin and muscle tissue were harvested 24 hours after the HPPH administration and dissolved in Solvable at 63° C. overnight. HPPH levels were measured by fluorometry as described above. In other experiments mice were administered ^14C-labelled HPPH and photosensitizer levels in the harvested tissues were determined by scintillation counting. […] After 24 hours, the tumors were treated with 665 nm light from an argon ion laser-pumped dye laser (Spectra Physics, Mountain View CA) with a fluence of 72 J/cm^2 delivered at a rate of 14 mW/cm^2. […] Tumors were measured every 1 to 3 days, and mice were sacrificed when tumor volumes exceeded 400 mm^3.

Series [6] has as its system Colo 26 cells. The experiment in a line: In vitro PDT phototoxicity (MTT assay) with ABCG2 modulators. It counts as cell-based, murine. The note with it: ALA, 10 μM imatinib mesylate.
The test system of series [7] is RIF-1 tumors. The experiment in a line: HPPH levels in tumor, skin and muscle of tumor-bearing mice. The format is in vivo, C3H/HeJCr mice. The settings on record: same regimen as tumor levels, 24 hours after HPPH. The procedure:
as §2

For series [8], the system named is RIF-1 cells. It counts as cell-based, murine. The settings on record: for Increase of intracellular HPPH levels: 0.8 μM HPPH, 10 μM modulator, p<0.01. How it is done:
as §1

Series [9] deals with BCC-1 cells. Put plainly: In vitro PDT phototoxicity (MTT assay) with ABCG2 modulators. The format is cell-based, human. The note with it: BCC-1 cells (ABCG2+), 0.4 μM HPPH, 10 μM imatinib mesylate.
Series [10] has as its system FaDu cells. The series is described as above. The note with it: FaDu cells (lack ABCG2), 0.8 μM HPPH, 10 or 20 μM imatinib mesylate. The format is cell-based, human.
Series [11] has as its system Colo 26 cells. Put plainly: Photosensitizer accumulation with ABCG2 modulators. The format is cell-based, murine. The note with it: 0.8 mM ALA, with vs without imatinib mesylate. How it is done: as §1
Series [12] deals with RIF-1 cells. The experiment in a line: In vitro PDT phototoxicity (MTT assay) with ABCG2 modulators. The settings on record: for Increase of HPPH-PDT phototoxicity: 10 μM modulator, high light doses.
Series [13] concerns HEK-293 R482 cells (ABCG2+). The experiment in a line: HPPH uptake and efflux in ABCG2-transfected cells. It counts as cell-based. From the text: (§3) In general known cell lines were used. FaDu human hypopharyngeal squamous cell carcinoma, RIF-1 murine radiation-induced fibrosarcoma and Colo 26 murine colon carcinoma cells were obtained from the American Type Culture Collection (ATCC; Manassas, VA). BCC-1/KMC, a human basal cell carcinoma cell line (14), was provided by Dr. Tak-Wah Wong, National Cheng Kung University Hospital, Tainan, Taiwan. HEK-293 cells transfected with either an empty pcDNA3 vector or a pcDNA3 vector containing full-length ABCG2 (HEK-293 pcDNA or HEK-293 […]) were provided by Dr. Susan Bates at the U.S. National Institute of Health, Bethesda, MD.. Cells were plated in 6-well plates at a density of 3×10^5 cells per well and incubated overnight. […] Cells were cultured for an additional 4 hours, then washed with cold culture medium and with PBS. Photosensitizer levels were determined using Solvable® (Perkin Elmer, Boston, MA) extraction (17). Briefly, the cells were solubilized in 0.5 ml Solvable® at 37° C. overnight. The Solvable® extract then was diluted 1:1 with PBS, the photosensitizer levels were determined by fluorometry, and concentrations were extrapolated from standard curves. Intracellular photosensitizer levels were normalized to intracellular protein content. […] Photosensitizer levels were then determined using Solvable® extraction, as above.

In series [14] the test system is RIF-1 cells. Put plainly: Photosensitizer efflux, 1 h in drug-free medium at 37° C. or 4° C. It counts as cell-based, murine. The settings on record: RIF-1 cells (ABCG2+), 1 h efflux. The procedure: as §1
In series [15] the test system is Colo 26 cells. Described as above. The format is cell-based, murine. The settings on record: Colo 26 cells (ABCG2+), 1 h efflux. How it is done: as §1
Series [16] has as its system BCC-1 cells. Described as above. The format is cell-based, human. The settings on record: BCC-1 cells (ABCG2+), 1 h efflux. The procedure:
as §1

For series [17], the system named is FaDu cells. Described as above. The format is cell-based, human. The note with it: lack ABCG2 expression, 1 h efflux. How it is done:
as §1

Series [18] concerns ABCG2. Put plainly: ABCG2 substrate status concluded from efflux and phototoxicity studies. The settings on record: conclusion from efflux and phototoxicity data. It counts as cell-based. The procedure: as §1
Series [19] deals with HEK-293 pcDNA cells (ABCG2-). Put plainly: HPPH efflux in empty-vector control cells. The format is cell-based. The settings on record: HEK293-pcDNA3 cells.
Source text: as §3

Counter-ions that a name gives are not always drawn.

These results are taken from patent publication US20100256136A1, “Method for Enhancing Pdt Efficacy Using a Tyrosine Kinase Inhibitor” (priority 2006, published 2010).

For the molecule pyropheophorbide-a methyl ester, the “Transport by ABCG2” value in series [1] is reported as “transports”.

`C=Cc1c(C)c2cc3nc(c4c5[nH]c(cc6nc(cc1[nH]2)C(C)=C6CC)c(C)c5C(=O)[C@@H]4C(=O)OC)[C@@H](CCC(=O)O)[C@@H]3C` [pheophorbide α]: in [1], the “Transport by ABCG2” value was “specific substrate”.

Turning to `Cc1ccc(NC(=O)c2ccc(CN3CCN(C)CC3)cc2)cc1Nc1nccc(-c2cccnc2)n1` [imatinib mesylate, 4[(4-methyl-1-piperazininyl)methyl]-N-(4-methyl-3-[(4-(3-pyidinyl)-2-pyrimidinyl)amino)-phenyl] benzamide methane sulfonate], the “Effect on HPPH accumulation” value in series [2] is listed as “no effect”. In series [3], the “Effect on intracellular HPPH levels” value is on record as “increased”. Also, the “Effect on sensitivity to HPPH-PDT” value in series [4] (HEK-293 pcDNA3 cells, pretreatment with 10 μM) is reported as “no effect”. Further, the “Anti-tumor effects of imatinib mesylate alone, without PDT” value in series [5] (brief course, 4 x 200 mg/kg oral gavage) is “no anti-tumor effects”. In addition, the Observable toxicity entry in series [5] (mouse, in vivo) was “no observable toxicity”. Also, in series [6], the “Effect on phototoxicity of PpIX” value is recorded as “increased”. Besides, the “Effect on HPPH levels in skin and muscle” value in series [7] was “less effect”. The “Effect on intracellular levels of BPD-MA” value in series [8] (0.14 μM BPD-MA, with vs without imatinib mesylate) is given as “increased”. For the same molecule, in series [8], the “Increase of intracellular HPPH levels” value was roughly 4 fold. The “Effect on HPPH-PDT phototoxicity” value in series [9] was “increased”; in series [10], “not”. Also, the “Effect on intracellular levels of ALA-induced PpIX” value in series [11] is “increased”. In addition, in [12] (0.14 μM BPD-MA, 10 μM imatinib mesylate), the “Effect on phototoxicity of BPD-MA” value is on record as “increased”. In series [12] (0.8 μM HPPH), the “Increase of HPPH-PDT phototoxicity” value was roughly 2 logs. For the same molecule, the “Effect on phototoxicity of HPPH-lactose-PDT” value in series [12] (1.6 μM HPPH-Lactose, 10 μM imatinib mesylate) is listed as “did not increase”. Further, the “Effect on phototoxicity of Photofrin-PDT” value in series [12] (2 μg/ml Photofrin, 10 μM imatinib mesylate) was “did not increase”.

Take `CCCCCCOC(C)c1c(C)c2cc3nc(c4c5[nH]c(cc6nc(cc1[nH]2)C(C)=C6CC)c(C)c5C(=O)C4)[C@@H](CCC(=O)O)[C@@H]3C` (stereo partly shown) [HPPH, 2-[1-hexyloxyethyl]-2-devinyl pyropheophorbide-a]: in series [4] (no modulator), the “Sensitivity to HPPH-PDT, HEK-293 pcDNA cells compared to HEK-293 R482 cells” value was “more sensitive”. Further, the “Time for 50% of the tumors to grow to 400 mm^3” value in [5] (HPPH-PDT treatment alone: 0.2 μmol/kg HPPH, 24 hours later 72 J/cm^2 665 nm light at 14 mW/cm^2) was 6 days. In addition, in [13] (HEK-293 R482 cells, 1 h efflux), the “Intracellular HPPH level after efflux at 4° C. compared to 37° C.” value is given as “significantly (p<0.05) higher”. Besides, the “HPPH levels after uptake (0 hour group), ABCG2- HEK-293 pcDNA3 cells compared to ABCG2+ HEK-293 R482 cells” value in [13] (after 4 h uptake) is “significantly (p<0.05) higher”. The “Intracellular HPPH level after efflux at 37° C. compared to 4° C.” value in series [14], in series [15] and in [16] was “significantly (p<0.01) lower” in each case. Besides, in series [17], the “HPPH content following efflux at 37° C. and 4° C.” value is “did not differ significantly”. The “Substrate for ABCG2” value in series [18] is recorded as “ABCG2 substrate”. Further, the “Temperature-dependent changes in efflux of HPPH” value in [19] is reported as “no temperature-dependent changes”.

On to `C=Cc1c(C)c2cc3nc(c(CC(=O)O)c4[nH]c(cc5nc(cc1[nH]2)C(C)=C5CC)c(C)c4C(=O)O)[C@@H](CCC(=O)O)[C@@H]3C` [chlorin e6], for which, in series [1], the “Transport by ABCG2” value is “transports”.

On to `C=CC1=C(C)c2cc3[nH]c(cc4nc(cc5[nH]c(cc1n2)c(C)c5CCC(=O)O)C(CCC(=O)O)=C4C)c(C)c3C=C` [5-aminolevulinic acid (ALA)-induced PpIX, protoporphyrin IX], for which, in [1], the “Transport by ABCG2” value is listed as “transports”.

On to `COc1cc2ncnc(Nc3ccc(F)c(Cl)c3)c2cc1OCCCN1CCOCC1` [gefitnib, N-(3-chloro-4-fluoro-phenyly)-7-methoxy-6(3-morpholin-4-ylpropoxy) quinazolin-4-amine], for which the “Effect on HPPH-PDT phototoxicity” value in [12] (0.8 μM HPPH, CsA 10 μM, gefitinib 5 μM) was “effective”. Besides, the Dark toxicity entry in series [12] (5 μM) is “significant dark toxicity”.

`COc1ccc2c3c([nH]c2c1)[C@H](C=C(C)C)N1C(=O)[C@@H]2CCCN2C(=O)[C@@H]1C3` [FTC, fumitremorgin C]: the “Increase of intracellular HPPH levels” value in series [8] is listed as roughly 4 fold. Further, in series [12] (0.8 μM HPPH), the “Increase of HPPH-PDT phototoxicity” value is given as roughly 2 logs.
